# System: Unknown protein yeast genes
# Assay: DNA chip mRNA expression in yeast, unknown protein yeast genes (Table 1)
# Assay type: cell-based, Saccharomyces cerevisiae S288C
# Summary of the method: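 First, S288C yeast grown in YPD at 25° C. are dosed in log phase with one toxicant (growth-inhibiting, not lethal) for 2 h. Next, total RNA is extracted and poly(A) mRNA isolated and reverse-transcribed with Cy3/Cy5-dUTP. Finally, whole-genome chip fluorescence is read relative to unexposed cells.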
smiles,measurement,setting,value
"Cl[C@H]1[C@H](Cl)[C@@H](Cl)[C@@H](Cl)[C@H](Cl)[C@H]1Cl [(7), γ-hexachlorocyclohexane]",The level of expressed mRNA in the presence of chemical substance/The level of expressed mRNA in the absence of chemical substance,"yeast gene YAL053W, incubated two hours with chemical substance",0.7
same,The level of expressed mRNA in the presence of chemical substance/The level of expressed mRNA in the absence of chemical substance,yeast gene YBL048W,1.9
same,The level of expressed mRNA in the presence of chemical substance/The level of expressed mRNA in the absence of chemical substance,yeast gene YBL107C,2.1
same,The level of expressed mRNA in the presence of chemical substance/The level of expressed mRNA in the absence of chemical substance,"yeast gene YDL072C, incubated two hours with chemical substance",1.8
same,The level of expressed mRNA in the presence of chemical substance/The level of expressed mRNA in the absence of chemical substance,"yeast gene YDL204W, incubated two hours with chemical substance",3.2
same,The level of expressed mRNA in the presence of chemical substance/The level of expressed mRNA in the absence of chemical substance,"yeast gene YDL222C, incubated two hours with chemical substance",1.0
same,The level of expressed mRNA in the presence of chemical substance/The level of expressed mRNA in the absence of chemical substance,"yeast gene YDR330W, incubated two hours with chemical substance",1.3
same,The level of expressed mRNA in the presence of chemical substance/The level of expressed mRNA in the absence of chemical substance,"yeast gene YDR411C, incubated two hours with chemical substance",2.0
same,The level of expressed mRNA in the presence of chemical substance/The level of expressed mRNA in the absence of chemical substance,"yeast gene YDR511W, incubated two hours with chemical substance",1.5
same,The level of expressed mRNA in the presence of chemical substance/The level of expressed mRNA in the absence of chemical substance,"yeast gene YDR545W, incubated two hours with chemical substance",1.2
same,The level of expressed mRNA in the presence of chemical substance/The level of expressed mRNA in the absence of chemical substance,"yeast gene YEL001C, incubated two hours with chemical substance",1.1
same,The level of expressed mRNA in the presence of chemical substance/The level of expressed mRNA in the absence of chemical substance,"yeast gene YER004W, incubated two hours with chemical substance",1.4
same,The level of expressed mRNA in the presence of chemical substance/The level of expressed mRNA in the absence of chemical substance,"yeast gene YER035W, incubated two hours with chemical substance",1.9
same,The level of expressed mRNA in the presence of chemical substance/The level of expressed mRNA in the absence of chemical substance,"yeast gene YER079W, incubated two hours with chemical substance",1.9
same,The level of expressed mRNA in the presence of chemical substance/The level of expressed mRNA in the absence of chemical substance,"yeast gene YER106W, incubated two hours with chemical substance",1.0
same,The level of expressed mRNA in the presence of chemical substance/The level of expressed mRNA in the absence of chemical substance,"yeast gene YER158C, incubated two hours with chemical substance",1.2
same,The level of expressed mRNA in the presence of chemical substance/The level of expressed mRNA in the absence of chemical substance,"yeast gene YER163C, incubated two hours with chemical substance",1.5
same,The level of expressed mRNA in the presence of chemical substance/The level of expressed mRNA in the absence of chemical substance,"yeast gene YER175C, incubated two hours with chemical substance",2.3
same,The level of expressed mRNA in the presence of chemical substance/The level of expressed mRNA in the absence of chemical substance,"yeast gene YFL006W, incubated two hours with chemical substance",1.0
same,The level of expressed mRNA in the presence of chemical substance/The level of expressed mRNA in the absence of chemical substance,"yeast gene YFL010C, incubated two hours with chemical substance",1.5
same,The level of expressed mRNA in the presence of chemical substance/The level of expressed mRNA in the absence of chemical substance,yeast gene YFL024C,3.3
same,The level of expressed mRNA in the presence of chemical substance/The level of expressed mRNA in the absence of chemical substance,"yeast gene YFL032W, incubated two hours with chemical substance",1.1
same,The level of expressed mRNA in the presence of chemical substance/The level of expressed mRNA in the absence of chemical substance,"yeast gene YGL037C, incubated two hours with chemical substance",2.9
same,The level of expressed mRNA in the presence of chemical substance/The level of expressed mRNA in the absence of chemical substance,"yeast gene YGL047W, incubated two hours with chemical substance",1.7
same,The level of expressed mRNA in the presence of chemical substance/The level of expressed mRNA in the absence of chemical substance,"yeast gene YGL053W, incubated two hours with chemical substance",3.7
same,The level of expressed mRNA in the presence of chemical substance/The level of expressed mRNA in the absence of chemical substance,yeast gene YGL121C,4.7
same,The level of expressed mRNA in the presence of chemical substance/The level of expressed mRNA in the absence of chemical substance,"yeast gene YGL199C, incubated two hours with chemical substance",1.3
same,The level of expressed mRNA in the presence of chemical substance/The level of expressed mRNA in the absence of chemical substance,"yeast gene YGR101W, incubated two hours with chemical substance",1.5
same,The level of expressed mRNA in the presence of chemical substance/The level of expressed mRNA in the absence of chemical substance,yeast gene YGR110W,1.7
same,The level of expressed mRNA in the presence of chemical substance/The level of expressed mRNA in the absence of chemical substance,"yeast gene YGR130C, incubated two hours with chemical substance",1.3
same,The level of expressed mRNA in the presence of chemical substance/The level of expressed mRNA in the absence of chemical substance,"yeast gene YGR154C, incubated two hours with chemical substance",2.0
same,The level of expressed mRNA in the presence of chemical substance/The level of expressed mRNA in the absence of chemical substance,"yeast gene YGR221C, incubated two hours with chemical substance",1.2
same,The level of expressed mRNA in the presence of chemical substance/The level of expressed mRNA in the absence of chemical substance,"yeast gene YHR138C, incubated two hours with chemical substance",3.0
same,The level of expressed mRNA in the presence of chemical substance/The level of expressed mRNA in the absence of chemical substance,"yeast gene YHR199C, incubated two hours with chemical substance",1.1
same,The level of expressed mRNA in the presence of chemical substance/The level of expressed mRNA in the absence of chemical substance,"yeast gene YIL023C, incubated two hours with chemical substance",1.2
same,The level of expressed mRNA in the presence of chemical substance/The level of expressed mRNA in the absence of chemical substance,"yeast gene YIL041W, incubated two hours with chemical substance",0.8
same,The level of expressed mRNA in the presence of chemical substance/The level of expressed mRNA in the absence of chemical substance,"yeast gene YIL087C, incubated two hours with chemical substance",1.8
same,The level of expressed mRNA in the presence of chemical substance/The level of expressed mRNA in the absence of chemical substance,"yeast gene YJL057C, incubated two hours with chemical substance",2.7
same,The level of expressed mRNA in the presence of chemical substance/The level of expressed mRNA in the absence of chemical substance,"yeast gene YJL066C, incubated two hours with chemical substance",1.6
same,The level of expressed mRNA in the presence of chemical substance/The level of expressed mRNA in the absence of chemical substance,"yeast gene YJL082W, incubated two hours with chemical substance",0.4
same,The level of expressed mRNA in the presence of chemical substance/The level of expressed mRNA in the absence of chemical substance,"yeast gene YJL151C, incubated two hours with chemical substance",1.4
same,The level of expressed mRNA in the presence of chemical substance/The level of expressed mRNA in the absence of chemical substance,"yeast gene YJL152W, incubated two hours with chemical substance",1.2
same,The level of expressed mRNA in the presence of chemical substance/The level of expressed mRNA in the absence of chemical substance,"yeast gene YJL161W, incubated two hours with chemical substance",3.6
same,The level of expressed mRNA in the presence of chemical substance/The level of expressed mRNA in the absence of chemical substance,"yeast gene YJL171C, incubated two hours with chemical substance",1.4
same,The level of expressed mRNA in the presence of chemical substance/The level of expressed mRNA in the absence of chemical substance,"yeast gene YJR008W, incubated two hours with chemical substance",2.9
same,The level of expressed mRNA in the presence of chemical substance/The level of expressed mRNA in the absence of chemical substance,"yeast gene YJR054W, incubated two hours with chemical substance",0.9
same,The level of expressed mRNA in the presence of chemical substance/The level of expressed mRNA in the absence of chemical substance,yeast gene YKL071W,3.7
same,The level of expressed mRNA in the presence of chemical substance/The level of expressed mRNA in the absence of chemical substance,"yeast gene YKL086W, incubated two hours with chemical substance",0.7
same,The level of expressed mRNA in the presence of chemical substance/The level of expressed mRNA in the absence of chemical substance,"yeast gene YKL151C, incubated two hours with chemical substance",5.6
same,The level of expressed mRNA in the presence of chemical substance/The level of expressed mRNA in the absence of chemical substance,"yeast gene YKL153W, incubated two hours with chemical substance",1.1
